Consider 1 compound from US12643906B2, “Fused aza-heterocyclic amide compound and use thereof” (CSPC ZHONGQI PHARMACEUTICAL TECHNOLOGY (SHIJIAZHUANG) CO., …, priority 2020, dated 2026).

Some results are limits rather than exact numbers.

The target of one experiment is T1, TRKA (Homo sapiens, UniProt P04629).
T1 construct: purchased Bioduro
Put plainly: HTRF kinase inhibition assay, TRKA. The format is biochemical. The method, then: (§1) The compound to be tested with a certain concentration gradient and an enzyme solution were successively added into a plate (kinase buffer (1× kinase buffer (Cisbio, Cat #62EZBFDD), pH 7.5; 5 mM MgCl2, 1 mM DTT) was added into negative control wells), and the compound plate was centrifuged at 1000 rpm for 30 seconds. The plate was sealed and incubated in a Constant Temperature Incubator at 25° C. for 30 min. A substrate solution containing TK-Sub-biotin (Cisbio, Cat #61TKOBL) and ATP (Sigma, Cat #R0441) was prepared, the substrate solution was added into a 384-well plate, and the plate was centrifuged at 1000 rpm for 30 seconds. The plate was sealed and incubated in a Constant Temperature Incubator at 25° C. for 60 min.
(§2) TK antibody and XL665 were diluted, mixed and added into the assay plate, and the plate was centrifuged at 1000 rpm for 30 seconds. The plate was sealed and incubated in a Constant Temperature incubator Incubator at 25° C. for 60 min. The assay plate was placed on an Envision reader for reading. (HTRF 665/615 ratio: signal value at 665 nm/signal value at 615 nm) Inhibition=(rationegative control well−ratiocompound well)/(rationegative control well−ratioenzyme-free control well)×100% 1.3 Data Analysis and Curve Fitting
(§3) Data were fitted in XLFit excel add-in version 5.4.0.8 to obtain IC50 values.
In general terms: Time-resolved FRET reads energy transfer from a long-lived donor to a nearby acceptor.

Another experiment has as its target T2, TRKC (Homo sapiens, UniProt Q16288).
T2 construct: purchased Bioduro
Put plainly: HTRF kinase inhibition assay, TRKC. The format is biochemical. The method, then: as §1, §2, §3

A further experiment concerns the target T3, TRKC(G696A) (Homo sapiens, UniProt Q16288, G696A).
T3 construct: purchased Bioduro
Put plainly: HTRF kinase inhibition assay, TRKC(G696A). The format is biochemical. The method, then:
as §1
TK antibody and XL665 were diluted, mixed and added into the assay plate, and the plate was centrifuged at 1000 rpm for 30 seconds. The plate was sealed and incubated in a Constant Temperature incubator Incubator at 25° C. for 60 min. The assay plate was placed on an Envision reader for reading.
as §3

Experiment [1] concerns TRK, p-TRK, p-PLCγ1, p-AKT in Ba/F3 LMNA-NTRK1-G595R tumor tissues. Put plainly: In vivo mechanism study, western blot of tumor tissues. The following applies: 100 mg/kg gavage, tumor taken 0.25-24 h. The arrangement: species or system NuNu mice. The method, then:
A total of 3 mice in the control group were selected, and tumor tissues were taken and cryopreserved 4 h after the administration of the vehicle. The compound No. 4 of the present disclosure was administered to other groups at 100 mg/kg, and tumor tissues was taken at 0.25 h, 1 h, 4 h, 8 h, 12 h and 24 h for cryopreservation.
A certain mass of tumor tissue was taken and added into a corresponding volume of protein lysate (RIPA lysate (Thermo Fisher, Cat. No. 89900): protease inhibitor (cOmplete, Mini, EDTA-free, EASYpack; Roche, Cat. No. 04693159001): phosphatase inhibitor (PhosStop, EASY pack; Roche, Cat. No. 04906837001)=8:1:1), homogenized and lysed in ice bath for 30 min. The mixture was subjected to high-speed centrifugation at low temperature, and then the supernatant was taken for BCA protein quantification (procedure according to the BCA protein quantification kit (Qiagen, Cat. No. PA115-01)). Finally, after the protein concentration was adjusted to be uniform by lysate, loading buffer was added, and the mixture was boiled at 100° C. for 10 min.
4-20% of 10-well prefabricated gel was adopted; the sample loading amount was 100 μg; 140 V electrophoresis was performed for 1-1.5 h; the 300 mA wet-transfer was performed for 1.5-2 h; the membrane was blocked with 5% BSA for 2-3 h; incubating with primary antibody overnight at 4° C. […]
Background: A western blot detects proteins with antibodies after separation by electrophoresis.

A further experiment deals with T4, ALK (Homo sapiens, UniProt Q9UM73).
T4 construct: purchased Carna 08-105
T4 sequence (Q9UM73 1058-1620 limits assumed): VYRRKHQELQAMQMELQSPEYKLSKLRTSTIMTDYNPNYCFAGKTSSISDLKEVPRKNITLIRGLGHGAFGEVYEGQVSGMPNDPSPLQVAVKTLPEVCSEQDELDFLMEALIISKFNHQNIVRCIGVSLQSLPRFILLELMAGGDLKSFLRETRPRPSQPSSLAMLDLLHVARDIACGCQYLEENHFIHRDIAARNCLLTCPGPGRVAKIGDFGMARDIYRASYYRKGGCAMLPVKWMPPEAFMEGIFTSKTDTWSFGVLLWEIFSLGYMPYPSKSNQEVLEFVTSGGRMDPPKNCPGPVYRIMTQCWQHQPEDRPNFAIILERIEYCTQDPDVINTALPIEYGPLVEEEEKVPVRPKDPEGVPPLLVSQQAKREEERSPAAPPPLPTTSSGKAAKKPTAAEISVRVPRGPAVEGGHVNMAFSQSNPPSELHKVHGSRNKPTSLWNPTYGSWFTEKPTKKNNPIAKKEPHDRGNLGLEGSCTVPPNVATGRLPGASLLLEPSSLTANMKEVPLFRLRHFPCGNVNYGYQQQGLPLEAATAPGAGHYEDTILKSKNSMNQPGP
The experiment can be described thus: Kinase inhibition assay with fluorescein labeled peptide, ALK. The format is biochemical. The method, then: Compounds were diluted to a certain concentration in DMSO with 4-fold gradients. The compound with a certain concentration, an enzyme solution and DMSO were added into a 384-well plate, and the plate was incubated at room temperature for 10 min. […] The plate was subjected to reading.

The target of a further experiment is T5, Ba/F3 ETV6-NTRK3-G696A (Homo sapiens, UniProt Q16288, G696A, cells depend on it).
T5 construct: fused on or other part: P41212 (Transcription factor ETV6)
T5 sequence (Q16288 whole entry G696A, the tested form may be a part): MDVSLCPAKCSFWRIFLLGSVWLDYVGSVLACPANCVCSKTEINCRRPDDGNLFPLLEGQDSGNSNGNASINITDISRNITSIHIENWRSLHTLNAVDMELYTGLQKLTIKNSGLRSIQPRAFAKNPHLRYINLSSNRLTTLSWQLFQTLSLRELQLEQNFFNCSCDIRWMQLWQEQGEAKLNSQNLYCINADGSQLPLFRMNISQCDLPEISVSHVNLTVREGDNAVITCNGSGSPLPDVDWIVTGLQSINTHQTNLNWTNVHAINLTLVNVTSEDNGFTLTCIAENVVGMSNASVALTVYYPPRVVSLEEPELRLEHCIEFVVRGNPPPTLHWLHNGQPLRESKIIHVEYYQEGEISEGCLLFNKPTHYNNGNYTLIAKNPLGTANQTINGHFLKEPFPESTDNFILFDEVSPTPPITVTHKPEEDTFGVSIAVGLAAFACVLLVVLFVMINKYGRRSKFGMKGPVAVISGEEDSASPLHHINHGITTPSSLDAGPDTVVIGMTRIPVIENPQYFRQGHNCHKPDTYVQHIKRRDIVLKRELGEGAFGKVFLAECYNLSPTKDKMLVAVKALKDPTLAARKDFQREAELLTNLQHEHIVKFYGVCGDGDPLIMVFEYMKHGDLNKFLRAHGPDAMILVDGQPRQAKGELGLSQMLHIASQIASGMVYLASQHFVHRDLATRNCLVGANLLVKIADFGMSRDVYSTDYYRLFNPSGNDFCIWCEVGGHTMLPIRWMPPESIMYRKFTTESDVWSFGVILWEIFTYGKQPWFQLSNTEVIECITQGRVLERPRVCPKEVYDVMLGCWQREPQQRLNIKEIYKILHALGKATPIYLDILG
The experiment can be described thus: In vitro cell proliferation inhibition (MTT). The format is cell-based, murine. To be noted: 72 h, read-out: IC50 Ba/F3 ETV6-NTRK3-G696A. The method, then: • Source of 6 kinds of cell lines for the test: KYinno Biotechnology (Beijing) Co., Ltd. • Cell type: murine B cells • Culture medium: RPMI-1640+10% FB S 2. Test Method
Cells in the logarithmic growth phase were harvested and counted using a […]. The cell suspension with a certain density was pipetted uniformly and seeded into a 96-well plate with each well of 100 μL, and shaken to make the cells uniformly disperse into the wells. 100 μL of compound solution with certain concentration gradient was added into each well, and 3 duplicate wells were set for each concentration. The plate was cultured in a CO2 incubator at 37° C. for 72 h. 20 μL of MTT working solution (5 mg/mL) was added into each well, and the plate was placed at 37° C. for 4 h, and centrifuged at 1000 rpm for 5 min by a plate centrifuge. After 180 μL of culture medium was discarded, the plate was added with 150 μL of DMSO, and mixed well with a microplate shaker, the plate bottom was wiped, and optical density (OD) at 550 nm was detected with a microplate reader.

The target of the next experiment is T6, TRKA(G595R) (Homo sapiens, UniProt P04629, G595R).
T6 construct: purchased signalchem
T6 sequence (P04629 33-796 G595R): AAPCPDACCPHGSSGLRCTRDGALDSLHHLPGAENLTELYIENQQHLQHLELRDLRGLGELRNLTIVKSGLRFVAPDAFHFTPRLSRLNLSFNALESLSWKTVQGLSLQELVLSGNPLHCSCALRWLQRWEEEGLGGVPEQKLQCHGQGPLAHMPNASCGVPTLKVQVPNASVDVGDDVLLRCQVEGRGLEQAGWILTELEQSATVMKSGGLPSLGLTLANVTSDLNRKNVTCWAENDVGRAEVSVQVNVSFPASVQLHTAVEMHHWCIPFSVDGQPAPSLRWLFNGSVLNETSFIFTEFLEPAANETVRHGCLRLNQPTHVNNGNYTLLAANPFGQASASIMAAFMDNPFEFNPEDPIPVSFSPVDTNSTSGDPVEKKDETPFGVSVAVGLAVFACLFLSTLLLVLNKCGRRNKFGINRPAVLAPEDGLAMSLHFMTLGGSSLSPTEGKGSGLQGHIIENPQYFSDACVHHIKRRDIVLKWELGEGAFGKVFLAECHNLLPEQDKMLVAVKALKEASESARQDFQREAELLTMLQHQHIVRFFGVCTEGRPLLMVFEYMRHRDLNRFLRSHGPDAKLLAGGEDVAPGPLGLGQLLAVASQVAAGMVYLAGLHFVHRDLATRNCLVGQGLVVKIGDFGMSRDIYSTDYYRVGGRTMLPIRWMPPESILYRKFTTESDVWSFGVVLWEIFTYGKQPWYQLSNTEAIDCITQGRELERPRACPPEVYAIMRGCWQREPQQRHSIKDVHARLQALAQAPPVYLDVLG
Put plainly: HTRF kinase inhibition assay, TRKA(G595R). The format is biochemical. The method, then:
as §1, §2, §3

T1 sequence (P04629 33-796): as the sequence (P04629 33-796 G595R) above, with R563G counted along it
T3 sequence (Q16288 32-839 G696A): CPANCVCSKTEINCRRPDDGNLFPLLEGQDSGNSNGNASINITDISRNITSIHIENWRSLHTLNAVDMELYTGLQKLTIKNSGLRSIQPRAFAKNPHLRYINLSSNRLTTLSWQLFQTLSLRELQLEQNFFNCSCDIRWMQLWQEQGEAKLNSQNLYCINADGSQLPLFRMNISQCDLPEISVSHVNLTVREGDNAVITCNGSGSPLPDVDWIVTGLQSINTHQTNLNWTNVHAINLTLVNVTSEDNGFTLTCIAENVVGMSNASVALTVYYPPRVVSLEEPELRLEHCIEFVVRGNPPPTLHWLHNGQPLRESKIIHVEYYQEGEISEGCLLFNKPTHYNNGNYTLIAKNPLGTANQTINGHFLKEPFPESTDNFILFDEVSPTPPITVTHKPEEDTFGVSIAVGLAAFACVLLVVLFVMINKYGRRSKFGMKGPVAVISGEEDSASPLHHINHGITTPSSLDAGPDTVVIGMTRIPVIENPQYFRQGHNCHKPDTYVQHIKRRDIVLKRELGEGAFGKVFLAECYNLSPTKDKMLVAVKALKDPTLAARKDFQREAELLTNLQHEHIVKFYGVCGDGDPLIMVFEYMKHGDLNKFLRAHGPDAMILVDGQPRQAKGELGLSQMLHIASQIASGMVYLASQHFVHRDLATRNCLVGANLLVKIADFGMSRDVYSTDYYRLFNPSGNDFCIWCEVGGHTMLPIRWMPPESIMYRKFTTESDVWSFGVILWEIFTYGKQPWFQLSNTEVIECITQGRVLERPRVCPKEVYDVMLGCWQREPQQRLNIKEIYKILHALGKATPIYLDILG
T2 sequence (Q16288 32-839): as the sequence (Q16288 32-839 G696A) above, with A665G counted along it

The term IC50 denotes the point on the concentration scale where inhibition reaches its midpoint. Lower therefore signals greater potency. Regarding `O=C(Nc1ccc(N2CCN(C(=O)CO)CC2)cc1)c1cnn2ccc(N3C[C@@H](F)C[C@@H]3c3cc(F)ccc3F)nc12` [Compound 4, 5-((2R,4S)-2-(2,5-difluorophenyl)-4-fluoropyrrolidin-1-yl)-N-(4-(4-(2-hydroxyacetyl)piperazin-1-yl)phenyl)pyrazolo[1,5-a]pyrimidine-3-carboxamide], the 50% inhibitory concentration (IC50) is 0.236 nM at TRKA; 0.443 nM against TRKC; 0.383 nM against TRKC(G696A); 22 nM on ALK; less than 0.169 nM on TRKA(G595R). For the same compound, the “phosphorylation of p-PLCγ1/PLCγ1 and p-AKT/AKT in tumor tissues” value in experiment [1] is given as “effectively inhibit”. Moreover, the “protein level of TRK and p-TRK in tumor tissues” value in experiment [1] is given as “significantly reduce”. At Ba/F3 ETV6-NTRK3-G696A, the GI50 stood at 0.466 nM.
